Five molecules from the NIST ThermoML archive (doi:10.1016/j.tca.2018.03.002) can be followed below.

The conditions of the data set: Crystal; DTA.

± gives the expanded uncertainty stated by the source.

Turning to `CC(=O)O` [acetic acid], the Normal melting temperature amounted to 16.80 ± 6 °C. Under `CCCC(=O)O` [butanoic acid] stands -4.50 ± 4 °C. Under `O=CO` [formic acid] stands 9.70 ± 8 °C; under `CCC(=O)O` [propanoic acid], -21.20 ± 2 °C. The same measure for `O` [water]: 0.00 ± 2 °C.
